In publication PMC7560342, “In Vitro and In Vivo Evaluation of the Toxic Effects of Dodecylguanidine Hydrochloride” (Toxics, 2020):
“Also recorded” adds a separate entry of the source.

How the values were obtained:
[1] = tested on: A549 cells; test: cells; format: cell-based, Human; settings: 24 h exposure, WST assay
Protocol: Human adenocarcinomic alveolar epithelial (A549) cells were obtained from the Korea Cell Line Bank (Seoul, Korea). Cells were grown in RPMI 1640 medium (Thermo Fisher Scientific, Waltham, MA, USA), containing 10% heat-inactivated fetal bovine serum (Thermo Fisher Scientific, Waltham, MA, USA) and 1% penicillin-streptomycin (Thermo Fisher Scientific, Waltham, MA, USA) under standard cell culture conditions (37 °C, 5% CO2, and 90% humidity).
A549 cells (1 × 10^4 cells) were incubated in 96-well plates overnight, and various concentrations (1, 10, 100, 1000, and 5000 μg/mL) of the eight selected chemicals were added to the cell culture medium. After 24 h of incubation, cell morphology was observed by optical microscopy, and cell viability was evaluated using EZ-Cytox kit (DoGenBio, Seoul, Korea) by quantifying purple formazan crystals. The membrane integrity was examined using an EZ-lactate dehydrogenase (LDH) kit (DoGenBio, Seoul, Korea) to measure the LDH level released from the cytosol into the culture medium. Absorbance was measured using a microplate reader (Tecan, Salzburg, Austria) at a wavelength of 450 nm.

[2] = tested on: A549 cells; test: Colony formation (clonogenic) assay; format: cell-based, Human; settings: 10 days
Protocol: A clonogenic assay was performed by modifying the method of Franken et al.. Briefly, the cells were incubated overnight in six-well plates, at a density of 200 cells per well. DGH (0.00313, 0.00625, 0.0125, 0.025, 0.05, 0.1, and 0.2 μg/mL) and CGP (0.313, 0.625, 1.25, 2.5, 5, 10, and 20 μg/mL) were incubated with the cells for ten days. After incubation, the medium was removed, the cells were washed with phosphate-buffered saline (PBS), fixed with methanol for 10 min on ice, and stained with crystal violet (0.5% crystal violet in 20% methanol). The number of colonies was quantified using light microscopy (Olympus Co., Tokyo, Japan).

[3] = tested on: Sprague-Dawley rats; test: Acute inhalation study (4 h aerosol exposure); format: in vivo, rat
Protocol: Specific-pathogen-free (SPF) male and female Sprague-Dawley (six-week-old) rats were purchased from Orient Bio Inc. (Sungnam, Korea). The temperature and relative humidity of the animal maintenance room was set to 22 ± 3 °C and 30 to 70%, respectively, with a 12:12 h light/dark cycle. Diet (LabDiet 5053, Orient Bio Inc., Sungnam, Korea) and water were supplied ad libitum. Following an acclimatization period of one week, the rats were randomly divided into four groups (five males and five females per group) for the acute inhalation study. All animal experiments were approved by the Animal Care and Use Committee of the National Institute of Environmental Research, Republic of Korea (identification code: NIER-2019-01-01-011; date of approval: 15 May 2019). The left lung of the rats was used for histopathological analysis and the right lung was used for bronchoalveolar lavage fluid (BALF) analysis, including lung cell damage and pulmonary inflammation.
The inhalation aerosols of the DGH solutions were generated using an atomizer with a clean air flow of 250 L/min. […] In the acute toxicity test, all the rats in each group were sacrificed immediately after exposure. Temperature, humidity, air flow, and air pressure were monitored during the exposure using a Model VT3-X15 environmental controller (Sibata, Saitama, Japan). The concentration of DGH was analyzed by sampling the chamber air using a SIP-32L (Sibata, Saitama, Japan) and measuring the weight of the membranes (T60A20, Φ55). The mass median aerodynamic diameter (MMAD) and geometric standard deviation (GSD) of DGH in the exposure chamber were measured using an Andersen cascade impactor (AN-200, Sibata, Saitama, Japan).
Hematology and serum biochemistry of ten rats in each group were analyzed, as described in previous studies. Briefly, blood samples of the animals were drawn from the ventral aorta using a syringe, under anesthesia. The blood samples were collected into CBC bottles containing ethylenediaminetetraacetic acid (EDTA) (K2 EDTA, BD vacutainer) and analyzed within 15 min, using an automatic hematology LC-662G, Kyoto, Japan. The following parameters were determined: white blood cell count, red blood cell count, hemoglobin, hematocrit, mean corpuscular volume, mean corpuscular hemoglobin, mean corpuscular hemoglobin concentration, red blood cell volume distribution width, platelets, mean platelet volume, […], and platelet distribution width. Blood samples were drawn from the ventral aorta using a syringe and collected in a serum vacutainer. The sera were collected by centrifugation at 2000 rpm for 10 min within 2 h after collection and stored at −80 °C in a freezer, prior to analysis. The following serum biochemistry parameters were determined using an automatic serum analyzer (Drichem4000, Fuji Photo Film, Tokyo, Japan): alkaline phosphatase, lactate dehydrogenase (LDH), glucose, total cholesterol, glutamic oxaloacetate transaminase, glutamic pyruvate transaminase, urea nitrogen in blood, calcium, inorganic phosphorus, gamma glutamyl transferase, albumin, total protein, creatinine, total bilirubin, sodium, potassium, and chlorine.

Q: Which “IC50 (half inhibitory concentration by cell viability assay)” value [1] does the source give for `CCCCCCCCCCCCN=C(N)N.Cl` [DGH, Dodecylguanidine hydrochloride] here?
A: 0.39 µg/mL

Q: What about the “Total number of colonies” value ([2]; DGH 0.00313–0.2 μg/mL, CGP 0.313–20 μg/mL) of the same molecule?
A: dramatic decrease

Q: And the “Reduction in colony formation compared to the control” value ([2]; DGH 0.025 μg/mL)?
A: approximately 50%

Q: And the Spleen weight ([3]; male rats, exposed groups, 4 h)?
A: significantly decreased; also recorded: decreased significantly

Q: What about the “Body weight vs control” value ([3]; rats, 8.6–68 mg/m^3, 4 h) of the same molecule?
A: no significant changes

Q: And the Deaths ([3]; rats, 8.6–68 mg/m^3, 4 h)?
A: no deaths occurred; also recorded: no death

Q: What about the Hematology vs control ([3]; rats, 8.6–68 mg/m^3, 4 h) of the same molecule?
A: no significant changes

Q: And the “Serum biochemistry vs control” value ([3]; rats, 8.6–68 mg/m^3, 4 h)?
A: no significant changes

Q: And the “LC50 (inhalation)” value ([3]; rats, exposure for 4 h, estimated)?
A: > 68 mg/m^3
